In patent publication US20220369638A1, “USE OF THE SUCCINATE DEHYDROGENASE INHIBITOR PYDIFLUMETOFEN FOR CONTROLLING CLAVICEPS PURPUREA AND REDUCING SCLEROTIA IN CEREALS” (Bayer Aktiengesellschaft, priority 2019, published 2022):

System: Claviceps purpurea
Experiment: Field trials 2018 in Canada: foliar application at early flowering, sclerotia (ergot bodies) counted in harvested wheat grain
Assay type: in vivo
Details: 75 grams/ha Pydiflumetofen, spring wheat (AC Goodeve) or durum wheat (AC Strongfield), crop per trial not stated
Experimental: Pydiflumetofen as well as market standards were applied according to table 2 between Jul. 6-9, 2018 between BBCH stage 61-63 (early flowering). Assessment of sclerotia was conducted in fall 2018 on harvested grain samples. […] A mixture of Pydiflumetofen and Propiconazole is also available as a suspension concentrate 275 SC formulation (275 grams of total active ingredients) with 150 grams of Pydiflumetofen and 125 grams of Propiconazole per litre under the name […] be tested for reduction of sclerotia in cereals, in particular in spring wheat, winter wheat, durum, hybrid spring wheat, hybrid winter wheat, winter rye, spring rye, hybrid winter rye, hybrid spring rye, and […] plants.

With `CON(C(=O)c1cn(C)nc1C(F)F)C(C)Cc1c(Cl)cc(Cl)cc1Cl` (stereo not drawn) [Pydiflumetofen, 3-(difluoromethyl)-N-methoxy-1-methyl-N-[1-methyl-2-(2,4,6-trichlorophenyl)ethyl]-1H-pyrazole-4-carboxamide] the “Trial No 1 number of Ergot bodies per kg seed” value (applied BBCH 61-63, untreated 0.5) was 0.5 per kg seed, the “Trial No 3 number of Ergot bodies per kg seed” value (applied BBCH 61-63, untreated 1.3) was 0 per kg seed and the “Trial No 2 number of Ergot bodies per kg seed” value (applied BBCH 61-63, untreated 2.3) was 0.3 per kg seed.
